Source: patent publication US12569452B2, “Ophthalmic compositions comprising F6H8” (NOVALIQ GMBH, priority 2017, dated 2026)

Test: Ocular tissue distribution after single topical ocular dose of 14C-F6H8, liquid scintillation counting
Format: in vivo, Dutch Belted (pigmented) female rabbits
Conditions: for Mean concentration of radioactivity, Conjunctiva (bulbar) / Mean concentration of radioactivity, Conjunctiva (palpebral) / Mean concentration of radioactivity, Cornea / Mean concentration of radioactivity, Lacrimal gland (accessory) / Mean concentration of radioactivity, Lacrimal gland (main) / Mean concentration of radioactivity, Meibomian glands / Mean concentration of radioactivity, Sclera (anterior) / Mean concentration of radioactivity, Tears: single topical ocular dose
Experimental: The study is conducted to assess the ocular tissue distribution after topical ocular administration of ^14C-1-Perfluorohexyloctane (F6H8, NovaTears®) to Dutch Belted (pigmented) female rabbits.
On the first day of dosing, 5.474 mL of ^14C—F6H8 is combined with 9.526 mL of F6H8. The dose formulation is magnetically stirred and appears to be a colorless solution. The dose formulation is separated into vials to provide one vial per day for dose administration and it is stored at approximately −20° C. One vial per day is thawed prior to dose administration. In between dose administrations, the vial is capped and stored at approximately 5° C. when not in use.
Animals are not fasted prior to dose administration. All animals receive single 35 μL-drops of the dose formulation in each eye, with the right eye dosed first. All collection times are based on the time of dosing of the second (left) eye for the last dose, as applicable.
After the dose is administered, the eye is allowed to close naturally. Each animal is then restrained for approximately 1 minute to prevent rubbing of the eyes.
Tears and Ocular Tissue Collection: Tears are collected from two animals per group per time point at 0.25, 0.5, 1, 2, 4, 8, and 24 hours post-dose following the single dose or the last dose of the multiple dose scheme. Tears are collected using Tear Flo Test (TFT) strips that were dye free. One strip of paper is used for each eye for each time point. Following collection, the tube containing the strip is placed on dry ice or stored at approximately −70° C. until analysed.
At the time of sacrifice, both eyes are enucleated and ocular tissues including Aqueous humour, Conjunctiva (bulbar), Conjunctiva (palpebral), Lacrimal gland (accessory), Lacrimal gland (main), Meibomian glands (tarsal plate), Choroid-Retinal pigmented epithelium (Choroid-RPE), Cornea, Iris-ciliary body (ICB), Retina, Sclera (anterior), Sclera (posterior), Vitreous humour are collected.
Radioanalysis: All samples are analyzed for radioactivity in a Model 2900TR liquid scintillation counter (Packard Instrument Company) for at least 5 minutes or 100,000 counts, utilizing Ultima Gold XR or Hionic Fluor scintillation cocktails (Perkin Elmer). Each sample is homogenized before radioanalysis, unless the entire sample is used for analysis. All samples are analyzed in duplicate if sample size allows.
For Conjunctiva (bulbar and palpebral), Cornea, Lacrimal gland (main), Meibomian glands, Retina, and Sclera (anterior and posterior), each sample is digested in 2M sodium hydroxide in ethanol (80:20, v:v) and maintained at room temperature or in an oven set no higher than 30° C. until dissolved. Scintillation cocktail is added, and the samples are shaken and analyzed directly by LSC.
For Lacrimal gland (accessory), each sample is digested in 2M sodium hydroxide in ethanol (80:20, v:v) and maintained at room temperature or in an oven set no higher than 30° C. until dissolved. The sample is homogenized by mixing and duplicate weighed aliquots are analyzed directly by LSC.
For Tears, at least 10 mL of Ultima Gold XR scintillation cocktail is added, and the samples are shaken and analyzed by LSC.
Single topical ocular administration, radioanalysis of ocular tissues: The rabbits received a single topical ocular administration in both eyes. The target dose level is 45.6 mg/eye (25 μCi/eye). Following the single topical ocular dose of 35 μl of ^14C—F6H8, two animals per time point are sacrificed at 0.25, 0.5, 1, 2, 4, 8, and 24 hours post-dose in a sparse sampling profile. Ocular tissues (including tears collected prior to sacrifice) are collected from all animals at sacrifice.

[1] = single dose, between 0.25 and 4 hours post-dose

## ^14C-1-Perfluorohexyloctane [^14C-F6H8]
Single dose
  Radioactivity in the iris-ciliary body and choroid-RPE: No radioactivity is detected
  Radioactivity in the vitreous humour and retina: Low levels
[1]
  Highest mean concentration, Meibomian glands: 294000 ng equivalents ^14C—F6H8/g
  Highest mean concentration, accessory lacrimal gland: 4280 ng equivalents ^14C—F6H8/g
  Highest mean concentration, anterior sclera: 2270 ng equivalents ^14C—F6H8/g
  Highest mean concentration, bulbar conjunctiva: 5450 ng equivalents ^14C—F6H8/g
  Highest mean concentration, cornea: 8230 ng equivalents ^14C—F6H8/g
  Highest mean concentration, main lacrimal gland: 4130 ng equivalents ^14C—F6H8/g
  Highest mean concentration, palpebral conjunctiva: 14200 ng equivalents ^14C—F6H8/g
  Highest mean concentration, tears: 2390000 ng equivalents ^14C—F6H8/g
0.25 h post-dose
  Mean concentration of radioactivity, Conjunctiva (bulbar): 5450 ng Equivalents ^14C-F6H8/g
  Mean concentration of radioactivity, Conjunctiva (palpebral): 14200 ng Equivalents ^14C-F6H8/g
  Mean concentration of radioactivity, Cornea: 2040 ng Equivalents ^14C-F6H8/g
  Mean concentration of radioactivity, Lacrimal gland (accessory): 577 ng Equivalents ^14C-F6H8/g
  Mean concentration of radioactivity, Lacrimal gland (main): 1670 ng Equivalents ^14C-F6H8/g
  Mean concentration of radioactivity, Meibomian glands: 294000 ng Equivalents ^14C-F6H8/g
  Mean concentration of radioactivity, Sclera (anterior): 1140 ng Equivalents ^14C-F6H8/g
  Mean concentration of radioactivity, Tears: 2390000 ng Equivalents ^14C-F6H8/g
0.5 h post-dose
  Mean concentration of radioactivity, Conjunctiva (bulbar): 3680 ng Equivalents ^14C-F6H8/g
  Mean concentration of radioactivity, Conjunctiva (palpebral): 5180 ng Equivalents ^14C-F6H8/g
  Mean concentration of radioactivity, Cornea: 8230 ng Equivalents ^14C-F6H8/g
  Mean concentration of radioactivity, Lacrimal gland (accessory): 0.00 ng Equivalents ^14C-F6H8/g
  Mean concentration of radioactivity, Lacrimal gland (main): 2770 ng Equivalents ^14C-F6H8/g
  Mean concentration of radioactivity, Meibomian glands: 102000 ng Equivalents ^14C-F6H8/g
  Mean concentration of radioactivity, Sclera (anterior): 2270 ng Equivalents ^14C-F6H8/g
  Mean concentration of radioactivity, Tears: 995000 ng Equivalents ^14C-F6H8/g
1 h post-dose
  Mean concentration of radioactivity, Conjunctiva (bulbar): 3320 ng Equivalents ^14C-F6H8/g
  Mean concentration of radioactivity, Conjunctiva (palpebral): 5700 ng Equivalents ^14C-F6H8/g
  Mean concentration of radioactivity, Cornea: 6110 ng Equivalents ^14C-F6H8/g
  Mean concentration of radioactivity, Lacrimal gland (accessory): 255 ng Equivalents ^14C-F6H8/g
  Mean concentration of radioactivity, Lacrimal gland (main): 641 ng Equivalents ^14C-F6H8/g
  Mean concentration of radioactivity, Meibomian glands: 57600 ng Equivalents ^14C-F6H8/g
  Mean concentration of radioactivity, Sclera (anterior): 1300 ng Equivalents ^14C-F6H8/g
  Mean concentration of radioactivity, Tears: 444000 ng Equivalents ^14C-F6H8/g
2 h post-dose
  Mean concentration of radioactivity, Conjunctiva (bulbar): 3050 ng Equivalents ^14C-F6H8/g
  Mean concentration of radioactivity, Conjunctiva (palpebral): 4230 ng Equivalents ^14C-F6H8/g
  Mean concentration of radioactivity, Cornea: 3230 ng Equivalents ^14C-F6H8/g
  Mean concentration of radioactivity, Lacrimal gland (accessory): 1450 ng Equivalents ^14C-F6H8/g
  Mean concentration of radioactivity, Lacrimal gland (main): 1530 ng Equivalents ^14C-F6H8/g
  Mean concentration of radioactivity, Meibomian glands: 69200 ng Equivalents ^14C-F6H8/g
  Mean concentration of radioactivity, Sclera (anterior): 767 ng Equivalents ^14C-F6H8/g
  Mean concentration of radioactivity, Tears: 700000 ng Equivalents ^14C-F6H8/g
4 h post-dose
  Mean concentration of radioactivity, Conjunctiva (bulbar): 1610 ng Equivalents ^14C-F6H8/g
  Mean concentration of radioactivity, Conjunctiva (palpebral): 2500 ng Equivalents ^14C-F6H8/g
  Mean concentration of radioactivity, Cornea: 4480 ng Equivalents ^14C-F6H8/g
  Mean concentration of radioactivity, Lacrimal gland (accessory): 4280 ng Equivalents ^14C-F6H8/g
  Mean concentration of radioactivity, Lacrimal gland (main): 4130 ng Equivalents ^14C-F6H8/g
  Mean concentration of radioactivity, Meibomian glands: 29100 ng Equivalents ^14C-F6H8/g
  Mean concentration of radioactivity, Sclera (anterior): 1170 ng Equivalents ^14C-F6H8/g
  Mean concentration of radioactivity, Tears: 207000 ng Equivalents ^14C-F6H8/g
8 h post-dose
  Mean concentration of radioactivity, Conjunctiva (bulbar): 1340 ng Equivalents ^14C-F6H8/g
  Mean concentration of radioactivity, Conjunctiva (palpebral): 1790 ng Equivalents ^14C-F6H8/g
  Mean concentration of radioactivity, Cornea: 6080 ng Equivalents ^14C-F6H8/g
  Mean concentration of radioactivity, Lacrimal gland (accessory): 2110 ng Equivalents ^14C-F6H8/g
  Mean concentration of radioactivity, Lacrimal gland (main): 2120 ng Equivalents ^14C-F6H8/g
  Mean concentration of radioactivity, Meibomian glands: 21100 ng Equivalents ^14C-F6H8/g
  Mean concentration of radioactivity, Sclera (anterior): 1330 ng Equivalents ^14C-F6H8/g
  Mean concentration of radioactivity, Tears: 6660 ng Equivalents ^14C-F6H8/g
24 h post-dose
  Mean concentration of radioactivity, Conjunctiva (bulbar): 1090 ng Equivalents ^14C-F6H8/g
  Mean concentration of radioactivity, Conjunctiva (palpebral): 2270 ng Equivalents ^14C-F6H8/g
  Mean concentration of radioactivity, Cornea: 2730 ng Equivalents ^14C-F6H8/g
  Mean concentration of radioactivity, Lacrimal gland (accessory): 1500 ng Equivalents ^14C-F6H8/g
  Mean concentration of radioactivity, Lacrimal gland (main): 1810 ng Equivalents ^14C-F6H8/g
  Mean concentration of radioactivity, Meibomian glands: 14700 ng Equivalents ^14C-F6H8/g
  Mean concentration of radioactivity, Sclera (anterior): 611 ng Equivalents ^14C-F6H8/g
  Mean concentration of radioactivity, Tears: 1300 ng Equivalents ^14C-F6H8/g
